Peptide text beside a SMILES is read from it.
Experiments:
Format in all cases: cell-based, human
CD8+ T cells [1] = experiment: Enrichment of epitope-specific CD8 T cells from healthy donors, epitope-specific IFNg production (ELISA); conditions: positive co-cultures / co-cultures tested
Description: (§1) Enrichment of epitope-specific CD8 T cells was performed according to the protocol described by Butler et al., Clin Cancer Res.;13(6):1857-1867 (2007), doi:10.1158/1078-0432, but included the following amendments. CD8+ T lymphocytes were collected from PBMCs by magnetic-activated cell sorting (MACS) according to the CD8 isolation kit (Miltenyi Biotec). CD8+ T cells with >95% purity were subsequently cultured in T cell medium supplemented with IL-2 (36 IU/mL; but no gentamycin) for 1 day, after which expansion cycles started. K562ABC cells (kindly provided by prof. Bruce Levine, University of Pennsylvania, PA) were loaded with 10 μg/ml ROPN1 and/or ROPN1B peptide and incubated for 5 h at RT in serum-free medium, after which cells were washed and fixed with 0,1% paraformaldehyde. After washing, K562ABC cells were suspended at 0.1×10^6/mL and co-cultured with T cells in a 1:20 ratio. IL-2 (36 IU/mL) and IL-15 ([…]) were added at days 1 and 3 days after start of co-culture, and after 6 days, T cells were counted, suspended at 2×10^6/mL and rested for 1 day, after which the next cycle commenced (this schedule continued up to 4 or 5 cycles). Following 4 and 5 cycles, T cells were stained with pMHC multimers (HLA*0201/MLN, Immudex, Copenhagen, Denmark). pMHC-PE were pre-incubated at RT for 10 min followed by incubation with 7AAD, anti-CD3-FITC and anti-CD8-APC for 20 min. Cells were fixed with 1% paraformaldehyde and TCR expression was measured with flow cytometry and analyzed using FlowJoX software. FIG. 4A schematically depicts the procedure to enrich epitope-specific T cells, and obtainthe corresponding TCR genes.
Enriched T cells were tested for ROPN1 and/or ROPN1B epitope-specific IFNY production. To this end, T2 cells (4×10^6/mL) were loaded with peptide (20 ng/mL) for 30 min. T cells (2×10^5) were cultured in a 1:1 ratio with T2 cells in a round bottom 96-wells plate, and the next day supernatant was collected and IFN-γ production was measured with an Enzyme-linked immunosorbent assay (ELISA, Invitrogen) according to manufacturer's protocol (FIG. 4B). T2 cells without peptide were included as a negative control; and staphylococcal enterotoxin B (0.1 μg, Sigma) was used as a positive control.
Enrichment of epitope-specific T cells was performed by co-culturing naïve T cells with CD11c-positive cells that were loaded with peptide. PBMCs were passed through a cell strainer (70 μm) and used for the isolation of naïve T cells and CD11c cells. To isolate CD11c-positive cells (typically dendritic cells, DC), PBMCs were stained for 10 mM at 4° C. with Fc block (10 μL/10^7 PBMCs, BD Pharmingen, Vianen, the Netherlands), after which cells were stained with CD11c-PE antibody (10 μL/10^7 PBMCs, BD Pharmingen) for 30 mM at 4° C., washed, and incubated with PE beads (10 μL/10^7 PBMCs, Miltenyi Biotech, Bergisch Gladbach, Germany) for another […] at 4° C. After washing, cells were dissolved in magnetic-activated cell sorting (MACS) buffer and passed through a MACS LS column (Miltenyi Biotec) to positively select CD11c cells. After selection, CD11c cells were irradiated with 30 Gy, and cultured overnight in a 24-wells plate (1×10^6/mL) in RPMI medium supplemented with 1% human serum (Sanquin), 1% antibiotics, […] L-glutamine, a DC maturation cocktail (a mixture of GM-CSF (10 ng/mL, ImmunoTools, Germany), IL-4 (10 ng/mL, ImmunoTools), LPS (100 ng/mL, Invitrogen, Goteborg, Sweden) and IFNY (10 ng/mL, Preprotech, London, United Kingdom)), as well as peptide (10 pg/mL). Naïve T cells were isolated with use of the Naïve T Cell isolation kit (Miltenyi Biotec) according to the manufacturer's protocol, and suspended in RPMI medium supplemented with 5% human serum (Sanquin), 1% antibiotics, […] L-glutamine and IL-7 (5 ng/mL, BD Pharmingen). The run-through of the naïve T cell selection was frozen down and used for re-stimulation of epitope-specific T cells. […]

CD8+ T cells [2] = experiment: peptide:MHC multimer/tetramer staining of enriched T cells (flow cytometry); conditions: for pMHC staining % pMHC+ CD8+ in CD3+: Table 4, enriched T cells after enrichment cycles
Description: as §1
Following enrichment, T cells were tested for ROPN1 and/or ROPN1B epitope-specific IFNY production. To this end, T2 cells (1×10^6/mL) were loaded with peptide (20 ng/mL) for 30 min, after which T cells (1×10^5) were cultured in a 1:1 ratio with T2 cells in a round bottom 96-wells plate for 18 h. Supernatant was collected and IFN-γ production was measured with an Enzyme-linked immunosorbent assay (ELISA, BioLegend) according to the manufacturer's protocol (FIG. 9A). T2 cells loaded with an irrelevant peptide were included as a negative control. T cell IFNg production was considered epitope-specific in case levels exceeded 200 pg/ml, and levels were minimally twice as high as for irrelevant peptide (see for full listing of criteria, FIG. 8). T cells that fulfilled these criteria were stained with peptide:MHC (pMHC) tetramers to determine the frequency of epitope-specific T cells. Empty Loadable HLA Tetramers (5 μL, Tetramer shop, Kongens Lyngby, Denmark) were incubated with 0.5 μL peptide (200 μM) for 30 min on ice. Complexes of pMHC were centrifuged (3300 g, 5 min) and incubated with 0.1×10^6 T cells for 15 min at 37° C. in the dark. Next, an antibody cocktail containing CD3-FITC (1:30, BD) and CD8-APC (1:300, eBiosciences) was added and incubated for an additional 30 min at 4° C. in the dark. Finally, T cells were washed twice and fixed with 1% paraformaldehyde (PFA), after which events were acquired with FACSCelesta (BD) and analyzed using FlowJoX software.

[3] = system: ROPN1 or ROPN1B over-expressing MDA-MB231 tumor cells; experiment: IFNg production of TCR T cells co-cultured with ROPN1 or ROPN1B over-expressing tumor cells (endogenously processed epitope); conditions: Table 4; responding TCRs / TCRs tested, T cells transduced with TCR specific for the epitope
Description: In a first series of in vitro tests, TCR-transduced T cells (6×10^4/well in a 96-well plate) were co-cultured with ROPN1 or ROPN1B over-expressing MDA-MB231 tumor cells (2×10^4/well) in a total volume of 200 μl of T cell medium for 24 h at 37° C. The ROPN1 or ROPN1B over-expressing tumor cells were generated as described under ‘generation and culture of cell lines and T cells’ (see above), and tumor cells were pre-treated 48 h with IFN-Y before co-culture with T cells. […] T cells that fulfilled these criteria (examples in FIG. 10A) were assessed for their sensitivity towards their cognate epitope. […] EC50 values were calculated using GraphPad Prism 5 software.

[4] = Table 2 (Example 1), healthy donor T cells

| SMILES | T cell responses observed (IFNg) against epitope (CD8+ T cells [1]; [4]) | T cell responses observed (IFNg) against epitope (CD8+ T cells [1]; Table 4) | pMHC staining % pMHC+ CD8+ in CD3+ (CD8+ T cells [2]) [%] | T cell responses observed (IFNg) against endogenously presented epitope [3] | enriched T cells binding MLN/HLA-A2 complexes (CD8+ T cells [2]; after 4 cycles of co-culture with epitope-loaded aAPC) [%] | enriched T cells binding MLN/HLA-A2 complexes (CD8+ T cells [2]; after 5 cycles of co-culture with epitope-loaded aAPC) [%] |
| --- | --- | --- | --- | --- | --- | --- |
| CC[C@H](C)[C@H](NC(=O)[C@H](Cc1ccc(O)cc1)NC(=O)[C@@H](NC(=O)[C@H](Cc1ccc(O)cc1)NC(=O)[C@H](CC(C)C)NC(=O)[C@@H](N)Cc1ccccc1)[C@@H](C)O)C(=O)N[C@@H](C)C(=O)N[C@@H](CCCCN)C(=O)N[C@H](C(=O)O)C(C)C (H-FLYTYIAKV-OH; N-terminus and C-terminus assumed) | 1/4 co-cultures | 1/4 co-cultures | 2.76 | 1/1 responses | – | – |
| CC[C@H](C)[C@H](NC(=O)[C@H](Cc1ccc(O)cc1)NC(=O)[C@@H](NC(=O)[C@H](Cc1ccc(O)cc1)NC(=O)[C@H](CC(C)C)NC(=O)[C@@H](N)Cc1ccccc1)[C@@H](C)O)C(=O)N[C@@H](C)C(=O)N[C@@H](CCC(=O)O)C(=O)N[C@H](C(=O)O)C(C)C (H-FLYTYIAEV-OH; N-terminus and C-terminus assumed) | – | 2/2 co-cultures | 1.34 | 1/1 responses | – | – |
| CSCC[C@H](NC(=O)[C@H](CCC(N)=O)NC(=O)[C@H](C)N)C(=O)N[C@@H](Cc1c[nH]c2ccccc12)C(=O)N[C@@H](CCCCN)C(=O)N[C@H](C(=O)N[C@H](C(=O)N[C@@H](CC(N)=O)C(=O)N[C@@H](CC(C)C)C(=O)O)C(C)C)C(C)C (H-AQMWKVVNL-OH; N-terminus and C-terminus assumed) | – | 2/2 co-cultures | 2.58 | 0/1 responses | – | – |
| CC[C@H](C)[C@H](NC(=O)[C@H](Cc1ccc(O)cc1)NC(=O)[C@H](CC(N)=O)NC(=O)[C@H](CC(C)C)NC(=O)[C@@H](N)CCSC)C(=O)N[C@@H](CCC(=O)O)C(=O)N[C@@H](CCC(N)=O)C(=O)N[C@@H](CCC(=O)O)C(=O)N[C@H](C(=O)O)C(C)C (H-MLNYIEQEV-OH; N-terminus and C-terminus assumed) | 1/3 co-cultures | 1/3 co-cultures | 13.3 | 0/2 responses | 20 | 62 |

— US20240131155A1, “T CELLS FOR USE IN THERAPY” (Erasmus University Medical Center Rotterdam, priority 2021, published 2024)
